Test results reported in patent US20240239854A1, “ANTIMICROBIAL PEPTIDES AND MODIFICATIONS THEREOF” (Donald Danforth Plant Science Center, priority 2022, published 2024).
No end group written: not given here.

Assays:
Assay type in all cases: cell-based
[1] = tested on: Fusarium graminearum PH-1; conditions: for F. graminearum PH-1 MIC Day1: MIC Day 1, 96-well plate, resazurin cell viability; for MIC, in-vitro antifungal activity against F. graminearum: F. graminearum PH-1, 48 hours
Botrytis cinerea T4 = tested on: Botrytis cinerea T4
[2] = tested on: Zymoseptoria tritici IPO323

Substance | F. graminearum PH-1 MIC Day1 [1] | B. cinerea T4 MIC Day1 (Botrytis cinerea T4) | Z. tritici IPO323 MIC Day 1 [2] | Z. tritici IPO323 MIC Day 7 [2] | Z. tritici IPO323 MIC Day 14 [2] | MIC, in-vitro antifungal activity against F. graminearum [1] | MIC, in-vitro antifungal activity against B. cinerea (Botrytis cinerea T4; 48 hours)
PD82.1.1: Pinus sylvestris wild-type defensin SEQ ID NO: 538 with N-terminal alanine, expressed in Pichia pastoris (RTCLSKSHRFHGYCVRSSSCKEICQTERFLSGECRHTHLGNRRCFCEKPC; N-terminal alanine added; listed as Pinus sylvestris) | 1.5 µM | 1.125 µM | 0.625 µM | 2 µM | 3.5 µM |  | 
PD84.1.1: Striga asiatica wild-type defensin SEQ ID NO: 546 with N-terminal alanine, expressed in Pichia pastoris (KICEYKSERFWGVCLSDIKCADVCKDESFESGDCQGLRRRCMCYNHC; N-terminal alanine added; listed as Striga asiatica) | >12 µM | >12 µM | >12 µM | >12 µM | >12 µM |  | 
PD85.1.1: Panax ginseng wild-type defensin SEQ ID NO: 551 with N-terminal alanine, expressed in Pichia pastoris (KLCEKASLTWSGKCGNTQNCDKQCQNWESAKHGACHKRPTWKCFCYSDC; N-terminal alanine added; Panax ginseng) | >12 µM | >12 µM | 0.625 µM | 1.75 µM | 10 µM |  | 
PD86.1.1: Erythranthe guttata wild-type defensin SEQ ID NO: 555 with N-terminal alanine, expressed in Pichia pastoris (SLCETPSRYFNGICFSRRNCGAICEKEGFSSGRCKAFKCVCGKDC; N-terminal alanine added; listed as Erythranthe guttata) | 6 µM | 12 µM | 7 µM | 12 µM | >12 µM |  | 
PD87.1.1: Raphanus sativus wild-type defensin SEQ ID NO: 560 with N-terminal alanine, expressed in Pichia pastoris (KLCQRPSGTWSGVCGNNNACKNQCIRLEKARHGSCNYVFPAHKCICYFPC; N-terminal alanine; listed as Raphanus sativus) | 0.75 µM | 0.375 µM | 0.375 µM | 1.5 µM | 2.5 µM | 0.75 µM | 
PD88.1.1: Fraxinus excelsior wild-type defensin SEQ ID NO: 565 with N-terminal alanine, expressed in Pichia pastoris (KHCAKLSKGWHGFCAPHKCSRYCIHHEGAYDGACLKHHHSKHIGCYCYYRHC; N-terminal alanine; Fraxinus excelsior) | >12 µM | 0.75 µM | 1.5 µM | 3 µM | 4 µM |  | 
PD89.1.2: Crambe maritima wild-type defensin SEQ ID NO: 569 with N-terminal alanine, expressed in Pichia pastoris (KLCRKPSGTWSGLCANSDSCRKQCINLEKAKDGSCKYKFPAHKCFCYY; N-terminal alanine; listed as Crambe maritima) | 12 µM | 2.5 µM | 1.5 µM | 6 µM | 12 µM |  | 
PD92.1.1: Trifolium pratense wild-type defensin SEQ ID NO: 583 with N-terminal alanine, expressed in Pichia pastoris (RKCESKRRWIYGNCLSDEKCASDCLVKGFLFGKCRGYDNRCYCKKPRC; N-terminal alanine; Trifolium pratense) | 3 µM | 3 µM | 0.75 µM | 1.75 µM | 2.5 µM |  | 
PD93.1.1: Fragaria vesca wild-type defensin SEQ ID NO: 588 with N-terminal alanine, expressed in Pichia pastoris (KICEVPSKTFKGLCVKDRNCVVRCHSEGYGNGKCSHVRRQCMCLKICD; N-terminal alanine; listed as Fragaria vesca) | >12 µM | 6 µM | 2 µM | 5 µM | 8 µM |  | 
PD94.1.1: Solanum lycopersicum wild-type defensin SEQ ID NO: 593 with N-terminal alanine, expressed in Pichia pastoris (KLCQYHSETFHGVCVTGNNCNRHCQRENFEGGRCHGIRHYRCVCYRTC; N-terminal alanine; listed as Solanum lycopersicum) | >12 µM | >12 µM | >12 µM | >12 µM | >12 µM |  | 
PD96.1.1: Thlaspi arvense wild-type defensin SEQ ID NO: 603 with N-terminal alanine, expressed in Pichia pastoris (RMCESKSHEFKGFCTKWRICRDVCITEGFTDGGCHGVLRHCVCKKPCLLSN; N-terminal alanine; Thlaspi arvense) | 0.75 µM | 6 µM | 2.5 µM | 10 µM | >12 µM | 0.75 µM | 
PD100.1.1: Prunus armeniaca wild-type defensin SEQ ID NO: 620 with N-terminal alanine, expressed in Pichia pastoris (QRGCKQASKSMTTCTAHPECDKKCKGEKAKMGLCRADGPKGKKCWCYMC; N-terminal alanine added; listed as Prunus armeniaca) | 6 µM | 6 µM | 1 µM | 4 µM | 8 µM |  | 
PD102.1.1: Cajanus cajan wild-type defensin SEQ ID NO: 628 with N-terminal alanine, expressed in Pichia pastoris (AVCSKPSTYFFGPCVRRSTCRRACSHENYPDGKCSRFLGKCICYKPCTT; cysteine pairing not given here; also: N-terminal alanine added, unclear whether it is the first A of the chain) | 1.5 µM | 1.25 µM | 1 µM | 1.5 µM | 2.5 µM |  | 
PD103.1.1: Eucalyptus grandis wild-type defensin SEQ ID NO: 633 with N-terminal alanine, expressed in Pichia pastoris (ATCRKPSMYFSGACFSRTNCQKACNREDWPNGKCLVGFKCFCQRPC; cysteine pairing not given here; also: N-terminal alanine added, unclear whether it is the first A of the chain; listed as Eucalyptus grandis) | 2.5 µM | 1.75 µM | 1.25 µM | 1.25 µM | 3 µM |  | 
PD104.1.1: Eucalyptus grandis wild-type defensin SEQ ID NO: 637 with N-terminal alanine, expressed in Pichia pastoris (AICKKPSKFFKGACGRDADCEKACDQENWPGGVCVPFLRCECQRSC; cysteine pairing not given here; also: N-terminal alanine added, unclear whether it is the first A of the chain; listed as Eucalyptus grandis) | >12 µM | >12 µM | >12 µM | >12 µM | >12 µM |  | 
PD106.1.1: Eucalyptus grandis wild-type defensin SEQ ID NO: 645 with N-terminal alanine, expressed in Pichia pastoris (ANCAKPSKFYRGPCFNSISVKPCTQRCSQENWPIGVCTKDLRCECQRPC; cysteine pairing not given here; also: N-terminal alanine added, unclear whether it is the first A of the chain; listed as Eucalyptus grandis) | 0.75 µM | 1 µM | 0.375 µM | 1.5 µM | 2.5 µM | 0.75 µM | 1 µM
